Laboratory results taken from article PMC4668384 (Scientific Reports, 2015).
In brackets after ≈: the same amount, converted by molar mass. Like-named read-outs stand apart in the source and are kept apart here.

Legend:
[1] = tested on: V. virens isolate FJ4-1b (wild type); experiment: Tebuconazole sensitivity, mycelial growth on amended PSA, wild type isolate; assay type: cell-based, Villosiclava virens; details: Ustilaginoidea virens, 336 h, 28 °C, 14 days
Description: Mycelial plugs (6 mm) were transferred in triplicates from the margins of 14-day old colonies to 9 cm petri dishes containing nonamended or tebuconazole-amended PSA. Dishes were incubated at 28 °C for 14 days in darkness. The average colony diameter was measured in two perpendicular directions, and the EC50 value was determined by regressing percentage growth inhibition against the log of fungicide concentration.

[2] = tested on: V. virens pB-Vv51wt transformants (P-F); experiment: Tebuconazole sensitivity, mycelial growth on amended PSA, pB-Vv51wt transformants; assay type: cell-based, Villosiclava virens; details: Ustilaginoidea virens
[3] = target: T1, truncated wild type VvCYP51 (Ustilaginoidea virens (Villosiclava virens), UniProt X2GGV8); experiment: UV-visible spectral binding assay, truncated wild type protein
T1 sequence (X2GGV8 29-528): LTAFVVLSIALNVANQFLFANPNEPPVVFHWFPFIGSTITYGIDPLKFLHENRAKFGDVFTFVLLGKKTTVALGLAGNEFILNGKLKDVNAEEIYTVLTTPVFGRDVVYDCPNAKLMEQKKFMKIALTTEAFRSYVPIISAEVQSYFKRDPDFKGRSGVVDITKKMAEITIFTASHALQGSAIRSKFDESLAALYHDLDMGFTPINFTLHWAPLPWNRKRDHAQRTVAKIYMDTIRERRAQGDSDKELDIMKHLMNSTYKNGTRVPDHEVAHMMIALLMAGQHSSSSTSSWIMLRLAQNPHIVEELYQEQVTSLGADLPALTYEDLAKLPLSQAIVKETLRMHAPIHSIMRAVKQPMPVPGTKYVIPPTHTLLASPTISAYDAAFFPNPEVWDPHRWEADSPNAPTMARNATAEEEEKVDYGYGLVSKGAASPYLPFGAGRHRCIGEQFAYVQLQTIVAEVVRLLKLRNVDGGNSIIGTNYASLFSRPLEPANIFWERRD

[4] = tested on: VvCYP51 gene expression in isolate FJ4-1b; experiment: Induction of VvCYP51 gene expression by tebuconazole (real-time PCR); details: 0.1 μg/ml tebuconazole for 6 h, versus untreated control
Description: The wild type isolates, mutant, and transformants were grown in 50 ml of PSB at 28 °C for 7 days on a 160 rpm orbital shaker. Total RNA was extracted from mycelia using the TRIzole reagent (Aidlab, Beijing, China), then digested with DNase I nuclease (Takara, Dalian, China) to remove DNA contamination. The cDNA was synthesized using a RevertAid First Strand cDNA Synthesis Kit employing the oligo(dT)18 primer (Thermo Fisher Scientific, Waltham, MA). The expression of the VvCYP51 gene was evaluated by real-time PCR using the primer pair RealCYP51-F/RealCYP51-R. Expression was normalized with the α-tubulin gene. Relative expression was calculated using the comparative Ct (2^−ΔΔCt) method[51]. […] Real-time PCR amplifications of VvCYP51 were performed in a CFX96 Real-Time PCR Detection System (Bio-Rad Laboratories Inc., Hercules, CA) using SYBR Green I fluorescent dye. Amplifications were conducted in a 20-μl volume containing 10 μl of SYBR qPCR Mix (Aidlab, Beijing, China), 1 μl of RT product and 0.2 μM of each primer. All samples were in triplicates with the following profile: an initial preheat at 95 °C for 2 min, followed by 40 cycles at 95 °C for 20 s, 60 °C for 20 s and 72 °C for 20 s. The entire experiment starting with RNA extractions was repeated four times.

CC(C)(C)C(O)(CCc1ccc(Cl)cc1)Cn1cncn1 (stereo not drawn) [tebuconazole]
EC50 [1]: 0.04 µg/mL (≈ 0.13 µM) | EC50 ([2]; 336 h, read-out: EC50 value, transformant P-F 4, mycelial growth on PSA, 28 °C, 14 days): 0.11 µg/mL (≈ 0.357 µM) | EC50 ([2]; 336 h, read-out: EC50 value, transformant P-F 7, mycelial growth on PSA, 28 °C, 14 days): 0.24 µg/mL (≈ 0.78 µM) | EC50 ([2]; 336 h, read-out: EC50 value, transformant P-F 8, mycelial growth on PSA, 28 °C, 14 days): 0.13 µg/mL (≈ 0.422 µM) | EC50 ([2]; 336 h, read-out: EC50 value, transformant P-F 9, mycelial growth on PSA, 28 °C, 14 days): 0.15 µg/mL (≈ 0.487 µM) | EC50 ([2]; 336 h, read-out: EC50 value, transformant P-F 10, mycelial growth on PSA, 28 °C, 14 days): 0.12 µg/mL (≈ 0.39 µM) | EC50 ([2]; 336 h, read-out: EC50 value, transformant P-F 13, mycelial growth on PSA, 28 °C, 14 days): 0.11 µg/mL (≈ 0.357 µM) | EC50 ([2]; 336 h, read-out: EC50 value, transformant P-F 14, mycelial growth on PSA, 28 °C, 14 days): 0.28 µg/mL (≈ 0.91 µM) | EC50 ([2]; 336 h, read-out: EC50 value, transformant P-F 15, mycelial growth on PSA, 28 °C, 14 days): 0.13 µg/mL (≈ 0.422 µM) | EC50 ([2]; 336 h, read-out: EC50 value, transformant P-F 16, mycelial growth on PSA, 28 °C, 14 days): 0.13 µg/mL (≈ 0.422 µM) | EC50 ([2]; 336 h, read-out: EC50 value, transformant P-F 17, mycelial growth on PSA, 28 °C, 14 days): 0.2 µg/mL (≈ 0.65 µM) | EC50 ([2]; 336 h, read-out: EC50 value, transformant P-F 20, mycelial growth on PSA, 28 °C, 14 days): 0.27 µg/mL (≈ 0.877 µM) | EC50 ([2]; 336 h, read-out: EC50 value, transformant P-F 22, mycelial growth on PSA, 28 °C, 14 days): 0.15 µg/mL (≈ 0.487 µM) | EC50 ([2]; 336 h, read-out: EC50 value, transformant P-F 23, mycelial growth on PSA, 28 °C, 14 days): 0.2 µg/mL (≈ 0.65 µM) | EC50 ([2]; 336 h, read-out: EC50 value, transformant P-F 25, mycelial growth on PSA, 28 °C, 14 days): 0.15 µg/mL (≈ 0.487 µM) | EC50 ([2]; 336 h, read-out: EC50 value, transformant P-F 26, mycelial growth on PSA, 28 °C, 14 days): 0.18 µg/mL (≈ 0.585 µM) | EC50 ([2]; 336 h, read-out: EC50 value, transformant P-F 28, mycelial growth on PSA, 28 °C, 14 days): 0.13 µg/mL (≈ 0.422 µM) | EC50 ([2]; 336 h, read-out: EC50 value, transformant P-F 29, mycelial growth on PSA, 28 °C, 14 days): 0.26 µg/mL (≈ 0.845 µM) | EC50 ([2]; 336 h, read-out: EC50 value, transformant P-F 31, mycelial growth on PSA, 28 °C, 14 days): 0.25 µg/mL (≈ 0.812 µM) | EC50 ([2]; 336 h, read-out: EC50 value, transformant P-F 32, mycelial growth on PSA, 28 °C, 14 days): 0.32 µg/mL (≈ 1.04 µM) | EC50 ([2]; 336 h, read-out: EC50 value, transformant P-F 33, mycelial growth on PSA, 28 °C, 14 days): 0.12 µg/mL (≈ 0.39 µM) | EC50 ([2]; 336 h, read-out: EC50 value, transformant P-F 34, mycelial growth on PSA, 28 °C, 14 days): 0.15 µg/mL (≈ 0.487 µM) | EC50 ([2]; 336 h, read-out: EC50 value, transformant P-F 36, mycelial growth on PSA, 28 °C, 14 days): 0.22 µg/mL (≈ 0.715 µM) | EC50 ([2]; 336 h, read-out: EC50 value, transformant P-F 37, mycelial growth on PSA, 28 °C, 14 days): 0.11 µg/mL (≈ 0.357 µM) | EC50 ([2]; 336 h, read-out: EC50 value, transformant P-F 38, mycelial growth on PSA, 28 °C, 14 days): 0.31 µg/mL (≈ 1.01 µM) | EC50 ([2]; 336 h, read-out: EC50 value, transformant P-F 39, mycelial growth on PSA, 28 °C, 14 days): 0.13 µg/mL (≈ 0.422 µM) | EC50 ([2]; 336 h, read-out: EC50 value, transformant P-F 40, mycelial growth on PSA, 28 °C, 14 days): 0.21 µg/mL (≈ 0.682 µM) | EC50 ([2]; read-out: EC50 values (range), range over the 26 pB-Vv51wt transformants): 0.11 to 0.32 µg/mL (≈ 0.357 to 1.04 µM) | Kd ([3]; bound for the three different truncated wild type VvCYP51 proteins, read-out: Kd values): < 40 nM | Kd ([3]; wild type VvCYP51, −28aa N-terminal truncation, read-out: Kd): 37 ± 2.7 nM | Kd ([3]; wild type VvCYP51, −42aa N-terminal truncation, read-out: Kd): 34 ± 2.3 nM | Kd ([3]; wild type VvCYP51, −74aa N-terminal truncation, read-out: Kd): 37 ± 2.5 nM | increase of expression of VvCYP51 gene [4]: 29.94 fold
